Data: paper PMC5011342, “A high throughput drug screening assay to identify compounds that promote oligodendrocyte differentiation using acutely dissociated and purified oligodendrocyte precursor cells” (BMC Research Notes, 2016)
Read-outs that look alike come from different tables or passages of the source.

What was measured:
[1] = tested on: acutely dissociated and purified rat OPCs; test: Acute OL differentiation assay (MBP expression/cell, immunofluorescent image quantification); type: cell-based; conditions: sheet "All OLga data"; for activation at 2 µM / activation at 10 µM / activation at 0.08 µM / activation at 0.4 µM: Rattus norvegicus; for activation at 0.08 µM: test compound at 0.08 uM, read-out: 0.08 uM (% Quet)
How it was run: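 This acute differentiation assay used purified rat OPCs from postnatal day 6–7 pups, seeded into PDL/laminin-coated 96-well plates in differentiation medium lacking PDGF and FGF. Compounds were applied in quadruplicate after a 1–2 h preincubation at 37 °C, 10 % CO2, with 0.1 % DMSO negative and 40 ng/ml T3 positive controls in eight wells. After fixation on DIV4, anti-MBP immunofluorescence images yielded MBP expression/cell.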

[2] = tested on: expanded OPCs; test: cells; conditions: for viability at 0.1 µM / viability at 1 µM / viability at 10 µM: Rattus norvegicus, 72 h
How it was run: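 Toxicity screen: compounds added at 0.1, 1 and 10 µM to PDGF-AA-expanded OPCs in 96-well plates, 3-day incubation at 37 °C, 10% CO2, then alamarBlue 1:10 for 4 h with fluorescence readout. Results set screening doses of 10/2, 2/0.4 or 0.4/0.08 µM.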

[3] = test compound at 2 uM, NCC library screen, relative to quetiapine, read-out: 2 uM (% Quet)
[4] = test compound at 10 uM, NCC library screen, relative to quetiapine, read-out: 10 uM (% Quet)
[5] = read-out: 0.1 µM (% DMSO), alamarBlue viability, NCC library compound at 0.1 µM, sheet "All Tox data"
[6] = read-out: 1 µM (% DMSO), alamarBlue viability, NCC library compound at 1 µM, sheet "All Tox data"
[7] = read-out: 10 µM (% DMSO), alamarBlue viability, NCC library compound at 10 µM, sheet "All Tox data"
[8] = alamarBlue viability of expanded OPCs, compound at 0.1 µM, relative to DMSO control
[9] = alamarBlue viability of expanded OPCs, compound at 1 µM, relative to DMSO control
[10] = alamarBlue viability of expanded OPCs, compound at 10 µM, relative to DMSO control
[11] = 2 uM test compound, relative to quetiapine, read-out: OL differentiation, 2 uM (% Quet)
[12] = 10 uM test compound, relative to quetiapine, read-out: OL differentiation, 10 uM (% Quet)
[13] = read-out: 0.1 µM (% DMSO), alamarBlue viability of expanded OPCs, compound at 0.1 µM, sheet All Tox data
[14] = read-out: 1 µM (% DMSO), alamarBlue viability of expanded OPCs, compound at 1 µM, sheet All Tox data
[15] = read-out: 10 µM (% DMSO), alamarBlue viability of expanded OPCs, compound at 10 µM, sheet All Tox data
[16] = NCC library screen, relative to quetiapine
[17] = test compound at 0.4 uM, NCC library screen, relative to quetiapine, read-out: 0.4 uM (% Quet)
[18] = 0.4 uM test compound, relative to quetiapine, read-out: OL differentiation, 0.4 uM (% Quet)
[19] = test compound at 2 uM, MBP expression relative to quetiapine, NCC library screen, read-out: 2 uM (% Quet)
[20] = test compound at 10 uM, MBP expression relative to quetiapine, NCC library screen, read-out: 10 uM (% Quet)

SMILES	activation at 2 µM [1, 3] [%]	activation at 10 µM [1, 4] [%]	viability at 0.1 µM [2, 5] [%]	viability at 1 µM [2, 6] [%]	viability at 10 µM [2, 7] [%]	activation at 2 µM [1, 11] [%]	activation at 10 µM [1, 12] [%]	viability at 0.1 µM [2, 13] [%]	viability at 1 µM [2, 14] [%]	viability at 10 µM [2, 15] [%]	also measured
C#C[C@]1(O)CC[C@H]2[C@@H]3CCC4=CC(=O)CC[C@@H]4[C@H]3CC[C@@]21C [Norethindrone]	-0.9	-32	95	87.2	80.6						
C#C[C@]1(OC(C)=O)CC[C@H]2[C@@H]3CCC4=CC(=O)CC[C@@H]4[C@H]3CC[C@@]21C [Norethisterone acetate]	-15	-14.3	103	93.1	101						
CCn1cc(C(=O)O)c(=O)c2cc(F)c(N3CCNCC3)cc21 [Norfloxacin]	-20.2	-13									0.1 µM (% DMSO) [2, 8]: 111.0 % DMSO; 1 µM (% DMSO) [2, 9]: 105.5 % DMSO; 10 µM (% DMSO) [2, 10]: 99.0 % DMSO
c1cncc([C@@H]2CCCN2)c1 [Nornicotine]						18.1	10.4	86	101	98.4	
CNCCC=C1c2ccccc2CCc2ccccc21 [Nortriptyline]											activation at 0.08 µM [1, 16]: 2.3%; activation at 0.4 µM [1, 17]: -28.1%; 0.1 µM (% DMSO) [2, 8]: 66.6 % DMSO; 1 µM (% DMSO) [2, 9]: 28.2 % DMSO; 10 µM (% DMSO) [2, 10]: 13.8 % DMSO
CC1COc2c(N3CCN(C)CC3)c(F)cc3c(=O)c(C(=O)O)cn1c23 (centres unmarked) [Ofloxacin]	3.8	-3.8				-4.3	4.9	95.3	91.5	99.5	0.1 µM (% DMSO) [2, 8]: 93.4 % DMSO; 1 µM (% DMSO) [2, 9]: 91.6 % DMSO; 10 µM (% DMSO) [2, 10]: 89.4 % DMSO
Cc1cc2c(s1)Nc1ccccc1N=C2N1CCN(C)CC1 [Olanzapine]						-9.8		90.8	60.6	30.2	activation at 0.4 µM [1, 18]: -3%
CC[C@@H]1C=CC=CC[C@H](C)[C@@H](O)[C@@H](C)C(=O)[C@H](C)[C@@H](O)[C@H](C)C(=O)[C@H](C)[C@@H](O)[C@H](C)C=CC(=O)O[C@H]2[C@@H](C)[C@@H](CC1)O[C@@]1(CC[C@@H](C)[C@@H](C[C@H](C)O)O1)[C@@H]2C [Oligomycin C]						-33.8	-128	86.9	87	68.4	
CCCc1nc(C(C)(C)O)c(C(=O)O)n1Cc1ccc(-c2ccccc2-c2nnn[nH]2)cc1 [Olmesartan]						-15.6	-11.9	91.4	87.4	93.9	
CN(C)CC/C=C1/c2ccccc2COc2ccc(CC(=O)O)cc21 [Olopatadine]	-29.3	-29	88.7	89.3	77.6						
COc1ccc2[nH]c([S+]([O-])Cc3ncc(C)c(OC)c3C)nc2c1 (centres unmarked) [Omeprazole]	-5.2	5.2	84.3	88.4	85.8						
Cc1nccn1CC1CCc2c(c3ccccc3n2C)C1=O (centres unmarked) [Ondansetron]						4.2	-7.7	92.9	92.2	102	activation at 2 µM [1, 19]: 3%; activation at 10 µM [1, 20]: 3.5%; 0.1 µM (% DMSO) [2, 8]: 95.7 % DMSO; 1 µM (% DMSO) [2, 9]: 92.7 % DMSO; 10 µM (% DMSO) [2, 10]: 90.9 % DMSO
CCCCCCCCCCC[C@@H](C[C@@H]1OC(=O)[C@H]1CCCCCC)OC(=O)[C@H](CC(C)C)NC=O [Orlistat]						-43.8		80.3	80.1	12.5	activation at 0.4 µM [1, 18]: 4.3%
COc1cc(C)c(Cc2cnc(N)nc2N)cc1OC [Ormetoprim]						-23.4	-8.2	101	91	95.4	
Cc1ncc([N+](=O)[O-])n1CC(O)CCl (centres unmarked) [Ornidazole]			106	91.3	82.2	4.7	13				
CCN(CC)CC1CCCCN1CC(=O)N1c2ccccc2C(=O)Nc2cccnc21 (centres unmarked) [Otenzepad]	11.2	13.5	91.2	81.4	75.7						
Cc1onc(-c2ccccc2)c1C(=O)N[C@@H]1C(=O)N2[C@@H]1SC(C)(C)[C@@H]2C(=O)O [Oxacillin]											activation at 2 µM [1, 19]: -14.9%; activation at 10 µM [1, 20]: -26.1%; 0.1 µM (% DMSO) [2, 8]: 96.9 % DMSO; 1 µM (% DMSO) [2, 9]: 96.8 % DMSO; 10 µM (% DMSO) [2, 10]: 93.4 % DMSO
O=C(O)CCc1nc(-c2ccccc2)c(-c2ccccc2)o1 [Oxaprozin]						-15.3	-15	91.8	86.6	78	
NC(=O)N1c2ccccc2CC(=O)c2ccccc21 [Oxcarbazepine]						-28.9	-57.8	102	92	73.5	
Clc1ccc(CO/N=C(\Cn2ccnc2)c2ccc(Cl)cc2Cl)c(Cl)c1 [Oxiconazole]								131	195	11.7	activation at 0.4 µM [1, 18]: 96.5%
C[C@]12C/C(=C/O)C(=O)C[C@@H]1CC[C@@H]1[C@@H]2CC[C@@]2(C)[C@H]1CC[C@]2(C)O [Oxymetholone]						-31.7		82.4	79.2	48.9	activation at 0.4 µM [1, 18]: -20%
CN1CC[C@]23c4c5ccc(O)c4O[C@H]2c2[nH]c4ccccc4c2C[C@@]3(O)[C@H]1C5 [Oxymorphindole]			85.7	54.1	12						activation at 0.08 µM [1, 16]: -8.6%; activation at 0.4 µM [1, 17]: -51.8%
CC[N+](C)(CC)CCOC(=O)C(O)(c1ccccc1)C1CCCCC1 (centres unmarked) [Oxyphenonium]	-6.1	36.4	92.5	97.2	94.9						
CN(C)[C@@H]1C(O)=C(C(N)=O)C(=O)[C@@]2(O)C(O)=C3C(=O)c4c(O)cccc4[C@@](C)(O)[C@H]3[C@H](O)[C@@H]12 [Oxytetracycline]											activation at 2 µM [1, 19]: -42.7%; activation at 10 µM [1, 20]: -36.7%; 0.1 µM (% DMSO) [2, 8]: 98.0 % DMSO; 1 µM (% DMSO) [2, 9]: 97.7 % DMSO; 10 µM (% DMSO) [2, 10]: 93.6 % DMSO
O=C(O)/C=C/c1ccc(Cn2ccnc2)cc1 [Ozagrel]						-6.1	-20.6	82.8	85.9	92.2	
Cc1sc(N)c(C(=O)c2cccc(C(F)(F)F)c2)c1C [PD 81723]											0.4 uM (% Quet) ([1]; test compound at 0.4 uM, NCC library screen, relative to quetiapine): 4.2 % Quet; 2 uM (% Quet) ([1]; test compound at 2 uM, NCC library screen, relative to quetiapine): -21.8 % Quet; 0.1 µM (% DMSO) ([2]; alamarBlue viability, NCC library compound at 0.1 µM, sheet "All Tox data"): 90.2 % DMSO; 1 µM (% DMSO) ([2]; alamarBlue viability, NCC library compound at 1 µM, sheet "All Tox data"): 90.8 % DMSO; 10 µM (% DMSO) ([2]; alamarBlue viability, NCC library compound at 10 µM, sheet "All Tox data"): 57.3 % DMSO
O=C1c2cccc3c2[C@H](CCC3)CN1[C@@H]1CN2CCC1CC2 [Palonosetron]	13.3	29.7	93	92.4	72.1						
CC(=O)O[C@H]1C[C@@H]2CC[C@@H]3[C@H](CC[C@@]4(C)[C@H]3C[C@H]([N+]3(C)CCCCC3)[C@@H]4OC(C)=O)[C@@]2(C)C[C@@H]1[N+]1(C)CCCCC1 [Pancuronium]						14.7	8.2	83.3	83.2	88	
